From US10328075B2, “Method of treatment and compounds for use therein” (Baker Heart and Diabetes Institute, priority 2015, dated 2019)
Read-outs that look alike come from different tables or passages of the source.

Key:
[1] = test system: rFpr1, rFpr2 expression in NRCM; assay: Fpr gene expression in neonatal rat cardiomyocytes (real-time PCR); format: cell-based; conditions: 1 μM, 48 h incubation
Method: Isolation and culture of primary rat cardiomyocytes and mouse cardiac fibroblasts: All materials used for cell isolation were of tissue culture grade. Isolation of primary neonatal rat cardiac cardiomyocytes (NRCM) and adult mouse cardiac fibroblasts (AMCF) was performed by serial enzymatic digestion, as previously described (Irvine et al 2012 & Irvine et al. 3) NRCM were plated onto either 12-well tissue culture plates (for simulated ischemia-reperfusion, via hypoxia-reoxygenation, H-R) or 60 mm tissue culture dishes (for gene expression) at a density of 1.3×10^5 cells/cm^2, in the presence of 1% 5-bromo-2′-deoxyuridine. AMCF (passage #3) were seeded onto 60 mm tissue culture dishes at 9.5×10^4 cells/cm^2 and allowed to grow to 80% confluence prior to study. Following 48 h in serum-free DMEM, NRCM in 12-well tissue plates were subjected to simulated ischemia, induced by replacement of culture media with sterile-filtered Kreb's buffer (118 mM NaCl, 4.8 mM KCl, 1.2 mM KH2PO4, 1.2 mM MgSO4, 25 mM NaHCO3, […], 11.0 mM glucose, 1.75 mM CaCl2) prior to incubation for 6 h at 37° C. under hypoxia (95% N2-5% CO2, using a hypoxia chamber, QNA International, Melbourne, Australia). At the end of hypoxia, Kreb's buffer was replaced with fresh, sterile-filtered Kreb's buffer, in the presence or absence of FPR agonists Cmpd17b, Cmpd43 (both 1 μM or vehicle, and NRCM were subjected to 48 h reoxygenation at 37° C. At the end of 48 h reoxygenation, NRCM supernatant was collected for assessment of cardiomyocyte injury. Cardiomyocyte release of cTnI was determined using a commercially available, high-sensitivity rat cTnI ELISA kit (Life Diagnostic Inc.) as per the manufacturer's instructions. Separate NRVM on 60 mm dishes were incubated for 48 h at 37° C. in serum-free DMEM, in the presence or absence of FPR agonists Cmpd17b, Cmpd43 (both 1 μM) or vehicle. At the end of 48 h, RNA was extracted and real-time PCR performed (as described previously (Huynh et al. 2012)), to determine the relative gene expression of rat Fprs (rFpr1, rFpr2 and rFpr3, expressed as the threshold cycle number Ct subtracted from the maximum cycle number utilized, 40).

hFPR1 = molecular target: T1, hFPR1 (Homo sapiens, UniProt P21462); assay: ERK1/2 phosphorylation (AlphaScreen SureFire) in hFPR1-FlpIn-CHO cells; format: cell-based
T1 construct: expressed in transfected cells
T1 sequence (P21462 1-350): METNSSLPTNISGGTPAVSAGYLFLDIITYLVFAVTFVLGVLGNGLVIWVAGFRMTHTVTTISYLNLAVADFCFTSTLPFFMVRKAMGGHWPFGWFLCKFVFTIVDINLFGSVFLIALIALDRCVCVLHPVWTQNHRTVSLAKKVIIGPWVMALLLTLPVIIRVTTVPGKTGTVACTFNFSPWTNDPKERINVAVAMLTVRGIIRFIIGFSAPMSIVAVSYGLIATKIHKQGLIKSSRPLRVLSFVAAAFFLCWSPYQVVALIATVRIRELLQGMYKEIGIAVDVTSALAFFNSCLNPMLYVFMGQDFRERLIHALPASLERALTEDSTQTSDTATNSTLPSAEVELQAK
From the text: cDNDA construct and generation of stable cell lines: cDNA in pcDNA3.1^+ encoding the human formyl peptide receptors (FPR) subtypes, hFPR1, hFPR2 and hFPR3 was obtained from Invitrogen. The sequences for 3 hFPR receptors were amplified by PCR and cloned into the Gateway entry vector, pDONR202™, using the BP clonase enzyme mix, according to the manufactures' instructions (Invitrogen Inc, Carlsbad, Calif., USA). All hFPR receptors constructs in pDONR201™ were subsequently transfected into the pEF5/FRT/V5/dest vector using the LR clonase enzyme mix (Invitrogen). Receptor constructs (pEF5/FRT/V5/dest) were used to transfect FIp-In CHO cells as described previously (Valant C et al., PNAS, 2014). Cells were selected using 500 μg/mL hydromycin to generate cell lines stably expressing each receptor construct. Cells were maintained and cultured in high glucose DMEM supplemented with 10% FBS, 16 mM HEPES and 500 μg/mL hydromycin at 37° C. under a humidified atmosphere containing 5% CO2.
In the various assays described below, cells were plated into 96-well transparent cell culture plates at 4×10^4 cells per well, cultured overnight in serum-free media at 37° C. in 5% CO2.
Measurement of extracellular signal regulated kinase 1 and 2 phosphorylation (pERK1/2): Initial ERK1/2 phosphorylation at Thr202/Tyr204 time-course experiments were performed to determine the time at which ERK1/2 phosphorylation was maximal after stimulation by each agonist. Cells were seeded onto transparent 96-well cell culture plates at 4×10^4 cells per well. After 6 h, cells were washed once with PBS, and then incubated in serum-free DMEM overnight, to allow FBS-stimulated phosphorylated ERK1/2 levels to subside. […] 10% (v/v) FBS was used as a positive control, with vehicle controls also included. The reaction was terminated by removal of study drugs and lysis of cells with 100 μL of SureFire lysis buffer (TGR Biosciences). Cell were lysed in SureFire lysis buffer and transferred to 384-well opaque proxiplates. Under low-light conditions, a 1:120 (v:v) dilution of AlphaScreen beads (both acceptor and donor):Surefire reaction buffer was prepared, which was mixed with the activation buffer in a ratio of 6:1 (v:v), respectively. Plates were incubated in the dark at 37° C. for 1 h before the fluorescence signal was measured by a Fusion-α plate reader (PerkinElmer Life and Analytical Sciences, Foster city, CA, USA) with standard AlphaScreen settings. Data were normalized to the maximal response elicited by 10% (v/v) FBS at the same time point.
Receptor mediated pERK1/2 levels were determined using the AlphaScreen™ ERK1/2 SureFire™ kit, as described previously (Keov, P et al., 2014). For all experiments, 10% FBS was used as internal positive control to stimulate pERK1/2, and which the maximum responses were used for normalization of data, whilst vehicle was used as negative control.
Data analysis: All data were analysed using GraphPad Prism 6.0 (GraphPad Software, San Deigo, Calif., USA). Where appropriate, concentration-response curves were fitted to derive the maximal agonist effect (Emax), and the ligand potency estimate (pEC50), where Emax is the maximal possible response of the system (not the agonist), basal is the basal level of response in the absence of agonist, and pEC50 is the negative logarithm of the agonist concentration that gives a response halfway between Emax and basal.
In the present study, FIp-IN CHO cells and Gateway plasmid were obtained from Invitrogen Inc (Carlsbad, Calif., USA). The sequences for all 3 known human FPRs (hFPR1, hFPR2 and hFPR3) were amplified by PCR and cloned into the Gateway entry vector, pDONR202TM, using the BP clonase enzyme mix, according to the manufacturers' instructions. The hFPR pDONR201TM constructs were subsequently transfected into the pEF5/FRT/V5/dest vector using the LR clonase enzyme mix (Invitrogen).

[2] = Table 9, read-out: potency (pEC50) pERK1/2, hFPR1-FlpInCHO cells in vitro (converted)

| SMILES | NRCM expression of rFpr1 [1] | NRCM expression of rFpr2 [1] | Time of maximal ERK1/2 phosphorylation in hFPR1-CHO cells (hFPR1; 10 μM, pilot timecourse) | Emax (hFPR1; Table 2, percentage of ERK1/2 phosphorylation elicited by 10% FBS, read-out: Emax (%), ERK1/2 phosphorylation, hFPR1-Flpln-CHO) | EC50 (hFPR1; Table 2, read-out: pEC50, ERK1/2 phosphorylation, hFPR1-Flpln-CHO (converted)) | ΔLog(τ/KA), ERK1/2 phosphorylation, hFPR1-Flpln-CHO (hFPR1; Table 8, normalized transduction coefficient, reference agonist Cmpd43) | Emax (hFPR1; Table 8, percent of response elicited by 10% FBS, read-out: Emax, ERK1/2 phosphorylation, hFPR1-Flpln-CHO) | EC50 (hFPR1; Table 8, read-out: pEC50, ERK1/2 phosphorylation, hFPR1-Flpln-CHO (converted)) | Log(τ/KA), ERK1/2 phosphorylation, hFPR1-Flpln-CHO (hFPR1; Table 8, transduction coefficient) | EC50 (hFPR1; [2]) | ERK Rmax (hFPR1; Table 10, receptor not given) | EC50 (hFPR1; Table 10, receptor not given, values of 10394/10396 equal the hFPR1 values of Table 9, read-out: ERK pEC50 (converted)) |
| --- | --- | --- | --- | --- | --- | --- | --- | --- | --- | --- | --- | --- |
| COc1cccc(Cc2cc(C)nn(C(C)C(=O)Nc3ccc(Br)cc3)c2=O)c1 (stereo not drawn) [BIDI-001, N-(4-bromophenyl)-2-[5-(3-methoxybenzyl)-3-methyl-6-oxo-6H-pyridazin-1-yl]-propionamide] | did not significantly influence | did not significantly influence |  |  |  |  |  |  |  |  |  |  |
| CC(C)C1C(NC(=O)Nc2ccc(Cl)cc2)C(=O)N(c2ccccc2)N1C (stereo not drawn) [BIDI-002] | without impact | tended to reduce | 5 min | 61 ± 9% | 67.6 nM | 0.0 | 61 ± 9% | 63.1 nM | 7.3 ± 0.1 | 67.6 nM |  |  |
| Cc1cc(Cc2cccnc2)c(=O)n(CC(=O)Nc2ccc(Cl)cc2)n1 [MIPS-0010396] |  |  |  |  |  |  |  |  |  | 676 nM | 76 ± 2 | 676 nM |
